Like-named read-outs stand apart in the source and are kept apart here.
Assays:
[1] = target: T1, Drosophila octopamine receptor (Drosophila melanogaster, UniProt P22270); assay: [3H]yohimbine competition displacement binding to membranes of transfected CHO-K1 cells
T1 construct: membranes or whole cells
T1 sequence (P22270 27-601): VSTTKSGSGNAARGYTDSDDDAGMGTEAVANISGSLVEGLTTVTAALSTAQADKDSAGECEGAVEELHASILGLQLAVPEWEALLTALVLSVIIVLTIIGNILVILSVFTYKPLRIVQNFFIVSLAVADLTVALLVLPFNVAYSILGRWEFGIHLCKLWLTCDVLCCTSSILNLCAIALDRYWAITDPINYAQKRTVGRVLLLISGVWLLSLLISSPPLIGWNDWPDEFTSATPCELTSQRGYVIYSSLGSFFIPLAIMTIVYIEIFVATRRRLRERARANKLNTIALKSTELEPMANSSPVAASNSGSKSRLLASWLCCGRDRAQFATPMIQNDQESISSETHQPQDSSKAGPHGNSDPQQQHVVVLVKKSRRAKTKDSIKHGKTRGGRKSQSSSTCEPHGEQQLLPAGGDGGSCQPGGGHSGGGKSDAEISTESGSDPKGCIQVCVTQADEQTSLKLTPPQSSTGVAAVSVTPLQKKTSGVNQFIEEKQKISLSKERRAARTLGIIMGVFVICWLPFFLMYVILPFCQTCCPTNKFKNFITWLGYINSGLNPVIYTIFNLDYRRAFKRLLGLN
From the text: (§1) In a binding assay provided herein, octopamine receptor genes isolated from a specific DNA library are inserted into a plasmid expression vector and used to transfect a Chinese hamster […] cell called CHO-K1 cells. These cells stably integrate the foreign DNA into the genome. Cells that express the insect octopamine receptor and process receptor into the mammalian cell membrane are cloned, expanded and frozen down for further use as membrane preparations in a ligand binding assay. […] After the incubations are terminated, the reaction mixture containing labeled ligand bound to receptor membranes is calculated by measuring label.
(§2) Cell membranes from transfected cells were prepared as previously described (F.-Z. Chung et al., J. Bol. Chem. 263:4052-4055 (1988); C. M. Fraser et al., Proc. Natl. Acad. Sci. USA 85:5478-5482 (1988), C. M. Fraser et al., J. Biol. Chem. 264:11754-11761 (1989), C. M. Fraser et al., Proc. Nat;. Acad. Sci. USA 85:5478-5482 (1989)).
Membrane bound octopamine receptors (20 μg of protein)
concentrations of the indicated agonists (0.1 μM to 2 mM) or
antagonists (10 nM to 200 μM). Incubations were performed at 37.degree
C. for 20 min in a final volume of 250 μl and terminated by filtration
over Whatman GF/C glass fiber filters. Experiments were repeated three
times in triplicate, and the average inhibition constants (± SD) were
caluclated using the LIGAND program of Munson and Rodbard (1980).

Octampamine1 = settings: locust neuromuscular preparation; data from Evans (1981/1982); cited from earlier work
[2] = target: T1, Drosophila octopamine receptor; assay: Attenuation of forskolin-stimulated cAMP in CHO-K1 cells expressing the Drosophila octopamine receptor; format: cell-based
Protocol: Transfected cells (3×10^5 cells per dish) were washed once with PBS and incubated in PBS containing 1 mM 3-isobutyl-1-methylxanthine (Sigma) at 37° C. for 20 min. Agonists, at the indicated final concentrations, were added to the cultures along with 10 μM forskolin (Sigma), and cultures were incubated at 37° C. for an additional 20 min. Incubations were terminated by the addition of 6% trichloroacetic acid. Trichloroacetic acid extracts were extracted four times with distilled water-saturated ether, and cMAP concentrations were determined using a cAMP radioimmunoassay kit (New England Nuclear). Data are expressed as percent forskolin-stimulated cAMP production. In the indicated experiments, cell cultures were incubated with Bordetella pertussis islet activating protein (200 ng/ml; list biological lab) at 37° C. for 18 hr in normal culture medium prior to the assay of cAMP. Solid and open squares represent data obtained with octopamine in transfected and control cells, respectively. Solid circles represent data with epinephrine in transfected cells. […] Data represent the average ±SEM of at least three separate experiments performed in duplicate.
(§3) Another aspect of the present invention relates to another drug screening method that identifies new compounds with biogenic amine (agonists) or antagonist activity for biogenic receptors by measuring adenylate cyclase concentrations in transfected CHO-K1 cells expressing octopamine receptors. In one embodiment, potential drugs are tested for their ability to attenuate forskolin-stimulated adenylate cyclase activity. Forskolin is added to control or octopamine receptor transfected CHO-K1 cells that stimulates increased intracellular cAMP levels in transfected cells over basal CHO-K1 levels. In the presence of forskolin, known concentrations of octopamine are added and the attenuation of forskolin stimulated cyclase AMP is calculated. A potential antagonist is determined by the competitive reversal of octopamine mediated attenuation of forskolin stimulated cyclic AMP accumulation when the drug is added to the assayed transfected cells.
Because of the pharmacological and structural similarities of the Drosophila receptor to mammalian […] receptors, the ability of octopamine to attenuate forskolin-stimulated adenylate cyclase activity was tested.

control CHO-K1 cells = assay: Attenuation of forskolin-stimulated cAMP in control CHO-K1 cells; format: cell-based, Chinese hamster; settings: 10 μM forskolin (FIG. 4)
Protocol: (§4) Transfected cells (3×10^5 cells per dish) were washed once with PBS and incubated in PBS containing 1 mM 3-isobutyl-1-methylxanthine (Sigma) at 37° C. for 20 min. Agonists, at the indicated final concentrations, were added to the cultures along with 10 μM forskolin (Sigma), and cultures were incubated at 37° C. for an additional 20 min. Incubations were terminated by the addition of 6% trichloroacetic acid. Trichloroacetic acid extracts were extracted four times with distilled water-saturated ether, and cMAP concentrations were determined using a cAMP radioimmunoassay kit (New England Nuclear). Data are expressed as percent forskolin-stimulated cAMP production. […]
as §3, with “In one embodiment, potential drugs are tested for their ability to attenuate forskolin-stimulated adenylate cyclase activity. Forskolin is added to control or octopamine receptor transfected CHO-K1 cells that stimulates increased intracellular cAMP levels in transfected cells over basal CHO-K1 levels.” left out, “cells. […]” for “cells.”

Octapamine2 = settings: locust neuromuscular preparation; data from Evans (1981/1982); cited from earlier work
adenylate cyclase = assay: Forskolin stimulation of intracellular cAMP in control or transfected CHO-K1 cells; settings: Cricetulus griseus, CHO-K1, 20 min, read-out: increase in intracellular cAMP levels over basal values
Protocol: as §4
as §3, with “In one embodiment, potential drugs are tested for their ability to attenuate forskolin-stimulated adenylate cyclase activity. Forskolin is added to control or octopamine receptor transfected CHO-K1 cells that stimulates increased intracellular cAMP levels in transfected cells over basal CHO-K1 levels.” left out, “cells. […]” for “cells.”

[3] = target: T1, Drosophila octopamine receptor; assay: [3H]yohimbine saturation binding to membranes of transfected CHO-K1 cells
From the text: as §1, §2

[4] = tested on: control, untransfected CHO-K1 cells; assay: [3H]yohimbine binding to membranes of control, untransfected CHO-K1 cells; set-up: species or system Chinese hamster; settings: untransfected CHO-K1 cell membranes
From the text: as §1, §2

Octopamine20 = settings: locust neuromuscular preparation; data from Evans (1981/1982); cited from earlier work
[5] = displacement of 6 nM [3H]yohimbine, 37° C., 20 min, average ± SD, three times in triplicate, read-out: K1

NCCc1c[nH]c2ccc(O)cc12 [Serotonin]
Ki [1]: 75 ± 18 µM

Cc1ccc(N(CC2=NCCN2)c2cccc(O)c2)cc1 [Phentolamine]
Ki ([1]; read-out: K1): 2.2 ± 0.7 µM
EC50 (Octampamine1): 0.0019 µM

CNCC(O)c1ccc(O)cc1 (racemic) [Synephrine(±), Synephrine]
Ki [1]: 10.8 ± 2.5 µM

COC(=O)[C@@H]1[C@H]2C[C@H]3c4[nH]c5ccccc5c4CCN3C[C@@H]2CC[C@@H]1O [Yohimbine]
antagonism of octopamine-mediated attenuation of forskolin stimulated cAMP accumulation ([2]; transfected cells, 10 μM yohimbine (FIG. 4)): competitively antagonized
EC50 (Octampamine1): 0.28 µM

NCC(O)c1ccc(O)cc1 (racemic) [Octopamine(±), Octopamine]
Ki ([1]; read-out: Ki): 29 ± 6 µM
activity at 100 µM ([2]; CHO-K1, 20 min, 100 μM octopamine plus 10 μM forskolin, transfected cells, read-out: cAMP levels, % of those seen with forskolin alone): 46%
ability to attenuate forskolin-stimulated cAMP levels after Bordetella pertussis islet activating protein ([2]; transfected cells pretreated with pertussis toxin 200 ng/ml, 18 hr): abolished
attenuation of forskolin-stimulated cAMP levels ([2]; transfected cells, 10 μM forskolin (FIG. 4)): dose-dependent attenuation of forskolin-stimulated cAMP levels
attenuation of forskolin-stimulated cAMP levels (control CHO-K1 cells): not observed in control cells

Clc1cccc(Cl)c1N=C1NCCN1 [Clonidine]
Ki [1]: 21 ± 7 µM
EC50 (Octampamine1): 0.00068 µM
EC50 (Octapamine2): 6.4 µM

CC(C)NCC(O)c1ccc(O)c(O)c1 (stereo not drawn) [Isoproterenol(-), Isoproterenol]
Ki [1, 5]: > 1000 µM
Ki ([1]; read-out: Ki): > 1000 µM

C=C[C@@]1(C)CC(=O)[C@]2(O)[C@@]3(C)[C@@H](O)CCC(C)(C)[C@@H]3[C@H](O)[C@H](OC(C)=O)[C@@]2(C)O1 [forskolin]
fold induction at 10 µM (adenylate cyclase): 35

CN(C)CCCN1c2ccccc2Sc2ccc(Cl)cc21 [Chlorpromazine]
Ki [1]: 0.18 ± 0.06 µM
EC50 (Octampamine1): 0.026 µM

CNC[C@H](O)c1ccc(O)c(O)c1 [Epinephrine(-), Epinephrine]
Ki [1]: 139 ± 41 µM
attenuation of forskolin-stimulated cAMP levels [2]: no effect on forskolin-stimulated cAMP levels
attenuation of forskolin-stimulated cAMP levels (control CHO-K1 cells): no effect on forskolin-stimulated cAMP levels

COC(=O)[C@@H]1[C@H]2C[C@H]3c4[nH]c5ccccc5c4CCN3C[C@@H]2CC[C@@H]1O [[^3 H]yohimbine]
Kd [3]: 0.0062 µM
Bmax ([3]; transfected cell membranes): 1.75 pmol of receptor per mg of membrane protein
specific radioligand binding [4]: No specific radioligand binding was observed

CCN(CC)CCNC(=O)c1cc(Cl)c(N)cc1OC [Metoclopramide]
Ki ([1]; read-out: K1): 4.6 ± 1.4 µM
EC50, Octampamine1 (Octampamine1): No effect-10^-6
EC50 (Octapamine2): 1 µM
EC50 (Octopamine20): 9.5 µM

NCCc1ccc(O)c(O)c1 [Dopamine]
Ki [1, 5]: > 1000 µM
Ki ([1]; read-out: Ki): > 1000 µM

— patent US5474898A, “Octopamine receptor” (The United States of America as represented by the …, priority 1994, dated 1995)
